Here are results for three substances from patent US7888293B2, “Compositions and methods relating to orthogonal ribosome mRNA pairs” (priority 2005, dated 2011).

Common to all, as to assay type: cell-based, E. coli
The test system of data set [1] is O-mRNA-Aα and O-mRNA-Cα. The data set is described as follows: Boolean OR gate, β-galactosidase FDG fluorescence. Conditions: OR gate, DH10B.
Data set [2] has as its system O-mRNA-Cα and O-mRNA-Aω. Briefly: Boolean AND gate, β-galactosidase FDG fluorescence. Conditions: BW26444 cells. As for the experimental part: The AND function was created in BW26444 cells, which are deleted in lacZ. Their genotype is (Δ(araD-araB)567, Δ(lacA-lacZ)519(::FRT), laclp-4000(lacl^Q), λ^−, rpoS396(Am), rph-1, Δ(rhaD-rhaB)568, hsdR514). Heat shock competent BW26444 cells containing the logic gate plasmid were prepared by standard CaCl2 treatment, and combinations of rRNA inputs accessed by double transformation. Transformed cells were recovered in SOB with 2% glucose and transferred to LB agar containing 2% glucose, 50 μg ml^−1 ampicillin, 25 μg ml^−1 kanamycin, 12.5 μg ml^−1 tetracycline and incubated (16 h, 37° C.). Individual colonies were transferred to each well of a 96 well culture block containing 100 μl of media (LB containing 2% glucose, 50 μg ml^−1 ampicillin, 25 μg ml^−1 kanamycin, 12.5 μg ml^−1 tetracycline) and grown overnight. Cells were pelleted by centrifugation (3000 g, 5 min) and resuspended in 1 ml of LB containing 50 μg ml^−1 ampicillin, 25 μg ml^−1 kanamycin, 12.5 μg ml^−1 tetracycline. After a further 1 h incubation (37° C., 250 rpm) cells were supplemented with isopropyl-β-D-thiogalactopyranoside (to 1 mM), and incubated (37° C., 250 rpm, 4 h) and the OD600 measured. […] An equal volume of 2× buffer Z (120 mM Na2HPO4, 80 mM NaH2PO4, 20 mM KCl, 2 mM MgSO4, 100 mM β-mercaptoethanol) containing fluorescein di-β-D-galactopyranoside (Molecular Probes, final concentration 0.5 mM) was added and incubated (22° C.) until a strong fluorescent signal was detected (approximately 5 min). […] Fluorescence was detected using a Spectra Max Gemini XS (Molecular Devices), with excitation at […] and emission detection at 450 nm.
Fluorescence was normalized for cell density and time of incubation with β-galactosidase substrate, using the equation: Fluorescence=1000×(raw fluorescence450 nm)/(t.V.OD600) Where (t) is time of incubation in seconds and (V) is the volume of culture used. […]
Cells containing a plasmid encoding both O-mRNA-Cα and O-mRNA-Aω were programmed with either wild-type rRNA, rRNA-A, rRNA-C or rRNA-C and rRNA-A together, and the conversion of FDG to fluorescein measured. […]

In data set [3] the test system is O-mRNA-Ccat. Briefly: Translation of cat from O-mRNA-Ccat, chloramphenicol resistance, compatible rRNA plasmids. The text has this: The RSF rRNA expression plasmid was derived from the previously described Col E1 expression plasmid (pTrc16S23S; Rackham & Chin, 2005, Nature Chem. Biol. 1: 159-166). The RSF1030 replicon, containing a kanamycin resistance gene, was amplified by PCR from pRSFDuet-1 (Novagen) using the oligonucleotides 5′-[…]-3′(SEQ ID NO: 120) and 5′-[…]-3′ (SEQ ID NO: 121). The resulting PCR product was digested with Kpn I and Sph I and used to replace the Kpn I, Sph I replicon-containing portion of pTrc 16S23S ribosome plasmids. CAT activity assays for orthogonal ribosome activity were performed as described in Rackham & Chin, 2005, supra).
One vector for rRNA production has a ColE1 origin of replication and an ampicillin resistance gene and is present at about 50 copies per cell. A second vector for rRNA production has an RSF origin of replication and a kanamycin resistance gene, and is present at about 100 copies per cell. […] To ascertain the effect of plasmid flanking sequences and plasmid copy number on the activity of the O-ribosomes incorporating plasmid-encoded rRNA, the translation of the chloramphenicol acetyl transferase gene (cat) from O-mRNA-Ccat (a version of cat with the 5′ orthogonal ribosome binding site C) was measured. […]

On to “rRNA-A: O-rRNA-A, SEQ ID NO:125, orthogonal 16S rRNA cognate to O-mRNA-A; probably rRNA-2 (AUCACUGUGGUA; expressed or natural sequence)”, for which the “fluorescence signal above background” value in data set [1] came to 10 fold. Also, the “fluorescence (conversion of FDG to fluorescein)” value in data set [2] was “low fluorescence”.

Regarding “rRNA-C: O-rRNA-C, SEQ ID NO:129, orthogonal 16S rRNA cognate to O-mRNA-C; probably rRNA-9 (AUCAUGGGAUUA; expressed or natural sequence)”, the IC50 chloramphenicol resistance in data set [3] (ColE1 plasmid) came out at 150 µg/mL; in data set [3] (RSF plasmid) it was 250 µg/mL. The “fluorescence signal above background” value in data set [1] came to 15 fold. In data set [2], the “fluorescence (conversion of FDG to fluorescein)” value is “low fluorescence”.

“wild-type rRNA: wild-type 16S rRNA, SEQ ID NO:116, plasmid-encoded control input (AUCACCUCCUUA; listed as Escherichia coli) [reference compound]”: the fluorescence entry in data set [1] is given as “comparable to that observed in the absence of plasmid-encoded a fragment”. The “fluorescence (conversion of FDG to fluorescein)” value in data set [2] is “low fluorescence”.
